Assay results as given in publication PMC7251097, “Aspartate/asparagine-β-hydroxylase: a high-throughput mass spectrometric assay for discovery of small molecule inhibitors” (Scientific Reports, 2020).
Where a name gives a salt, the structure may show the parent alone. Read-outs that look alike come from different tables or passages of the source.

Biological target: T1, His6-AspH315–758 (human aspartate/asparagine-β-hydroxylase, AspH) (Homo sapiens, UniProt Q12797)
T1 construct: N-Terminally His6-tagged human AspH315–758 (His6-AspH315–758) was produced in E. coli BL21 (DE3) cells; made in house; host or cells: E. coli BL21 (DE3), pET-28a(+) vector
T1 sequence (Q12797 315-758): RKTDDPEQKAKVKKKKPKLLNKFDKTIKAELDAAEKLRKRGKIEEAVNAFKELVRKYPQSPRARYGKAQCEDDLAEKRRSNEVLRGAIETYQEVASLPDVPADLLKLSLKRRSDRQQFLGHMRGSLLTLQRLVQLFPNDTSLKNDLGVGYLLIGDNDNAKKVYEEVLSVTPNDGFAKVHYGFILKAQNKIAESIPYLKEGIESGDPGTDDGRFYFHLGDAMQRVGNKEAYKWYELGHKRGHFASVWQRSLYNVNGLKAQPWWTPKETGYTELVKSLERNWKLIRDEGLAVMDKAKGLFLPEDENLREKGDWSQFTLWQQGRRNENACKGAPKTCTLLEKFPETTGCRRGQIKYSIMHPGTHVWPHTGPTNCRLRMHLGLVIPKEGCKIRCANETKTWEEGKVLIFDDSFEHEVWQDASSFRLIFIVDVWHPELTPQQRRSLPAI
Experiment: SPE-MS AspH inhibition assay (LOPAC screen at fixed 20 μM and IC50 dose-response), hydroxylation of cyclic peptide hFX-CP101–119
Assay type: biochemical

[1] = LOPAC compound at fixed 20 uM, plate 1, normalised to DMSO and 2,4-PDCA controls
[2] = LOPAC compound at fixed 20 uM, substrate conversion, plate 1
[3] = LOPAC compound at 20uM, plate 2, conversion of substrate peptide
[4] = LOPAC compound at 20uM, plate 2, normalised to DMSO and 2,4-PDCA controls, read-out: Plate 2 (% inhibition)
[5] = LOPAC Plate 4, compound at 20 uM
[6] = LOPAC Plate 4, compound at 20 uM, substrate conversion
[7] = AspH activity, fixed compound concentration 20 μM, initial LOPAC screen, 0.5%v/v DMSO, read-out: Inhibition at 20 µM [%]
[8] = LOPAC compound at 20uM, plate 2, normalised to DMSO and 2,4-PDCA controls

N[C@@H](C(=O)N[C@@H]1C(=O)N2C(C(=O)O)=C(Cl)CS[C@H]12)c1ccccc1 [Cefaclor]
Plate 1 (% inhibition) [1]: 23.98% | Plate 1 (% conversion) [2]: 27.82%

O=c1c(-c2ccc(O)cc2)coc2cc(O)cc(O)c12 [Genistein]
Plate 2 (% conversion) [3]: 19.78% | inhibition at 20 µM [4]: 48.3%

Nc1nc(Nc2ccccc2)nc2c1ncn2[C@@H]1O[C@H](CO)[C@@H](O)[C@H]1O [2-Phenylaminoadenosine]
% inhibition [5]: -10.62% | % conversion [6]: 40.09%

NS(=O)(=O)c1cc2c(cc1Cl)N=CNS2(=O)=O [Chlorothiazide]
Plate 1 (% inhibition) [1]: -4.46% | Plate 1 (% conversion) [2]: 37.37%

N#C/C(=C\c1ccc(O)c(O)c1)C(N)=S [Tyrphostin 47, reference compound]
% conversion: 2.14% | inhibition at 20 µM: 101% | inhibition at 20 µM (read-out: Inhibition at 20 µM [%]): 101%

CC(=O)[C@H]1CC[C@H]2[C@@H]3CC[C@H]4C[C@H](O)CC[C@]4(C)[C@H]3CC[C@]12C [5alpha-Pregnan-3alpha-ol-20-one]
% conversion: 26.94%

Oc1ccc(C2CNCCc3c2cc(O)c(O)c3Cl)cc1 (stereo not shown) [Fenoldopam bromide, reference compound]
inhibition at 20 µM [7]: 98.3% | Plate 2 (% conversion) [3]: 3.05% | inhibition at 20 µM [4]: 98.3%

OC[C@H]1NC[C@@H](O)[C@@H]1O [1,4-Dideoxy-1,4-imino-D-arabinitol]
Plate 2 (% conversion) [3]: 35.43% | Plate 2 (% inhibition) [8]: 1.56%

CCCN1CCc2cccc3c2[C@H]1Cc1ccc(O)c(O)c1-3.Cl [R(-)-Propylnorapomorphine hydrochloride]
Plate 2 (% conversion): 7.83% | Plate 2 (% inhibition) (20 µM): 84.00%

CN1[C@@H]2CC[C@H]1C[C@@H](OC(c1ccccc1)c1ccccc1N)C2 (stereo partly shown) [Aminobenztropine]
Plate 1 (% conversion): 38.12% | Plate 1 (% inhibition) [1]: -6.68%

Br.Cc1cccc(C2CN(C)CCc3c2cc(O)c(O)c3Cl)c1 (stereo not shown) [SKF 83959 hydrobromide, reference compound]
Inhibition at 20 µM [%] (AspH activity, fixed compound concentration 20 μM, initial LOPAC screen, 0.5%v/v DMSO): 95.1% | % inhibition [5]: 95.13% | % conversion [6]: 4.00%

COc1cccc(C(=O)NCCN2CCN(c3ccc(Cl)cc3)CC2)c1
Plate 1 (% inhibition) [1]: -7.35% | Plate 1 (% conversion) [2]: 38.34%

CN(C)C(N)=NCCC[C@H](N)C(=O)O.Cl [N^G,N^G-Dimethylarginine hydrochloride]
Plate 2 (% conversion) [3]: 37.98% | Plate 2 (% inhibition) [8]: -6.05%

CC(C)(C)NCC(O)c1ccccc1Cl (stereo not shown) [Tulobuterol hydrochloride]
% conversion [6]: 41.18% | inhibition at 20 µM (LOPAC Plate 4, compound at 20 uM, read-out: % inhibition): -13.8%

O=[N+]([O-])c1ccc2c(c1)S(=O)(=O)C=C2 [Stattic]
% conversion: 34.71% | % inhibition (20 µM): 5.15%

O=C(O)COCCN1CCN(C(c2ccccc2)c2ccc(Cl)cc2)CC1 (stereo not shown) [Cetirizine dihydrochloride]
inhibition at 20 µM [4]: -5.77%

N#CC(CCCN1CCN(/N=C/c2cccnc2)CC1)(c1ccccc1)c1ccccc1 [SC-26196]
Plate 5 (% inhibition) (plate 5 (Pfitzer), test compounds at fixed 20 μM): 23.44% | Plate 5 (% conversion) (plate 5 (Pfitzer), test compounds at fixed 20 μM, mean conversion DMSO 32.88): 28.34%

Cl.c1ccc(CN(CC2=NCCN2)c2ccccc2)cc1 [Antozoline hydrochloride]
Plate 1 (% inhibition) [1]: -17.43% | Plate 1 (% conversion) [2]: 41.73%

O=C(O)Cc1ccc(O)c(O)c1 [3,4-Dihydroxyphenylacetic acid, reference compound]
inhibition at 20 µM [7]: 98.6%

NNc1nncc2ccccc12 [Hydralazine hydrochloride]
Plate 2 (% conversion) [3]: 38.20% | inhibition at 20 µM [4]: -6.7%

Cc1nnc(SCC2=C(C(=O)O)N3C(=O)[C@@H](NC(=O)Cn4cnnn4)[C@H]3SC2)s1 [Cefazolin sodium]
Plate 1 (% inhibition) [1]: 9.95% | Plate 1 (% conversion) [2]: 32.53%

Rhodblock 6
Plate 1 (% inhibition) [1]: -3.70% | Plate 1 (% conversion) [2]: 37.11%

OC(CN1CCC(Cc2ccc(F)cc2)CC1)c1ccc(Cl)cc1 (stereo not shown) [Eliprodil]
Plate 2 (% conversion) [3]: 39.73% | inhibition at 20 µM [4]: -11.3%

CCN1CCC[C@H]1CNC(=O)c1cc(S(N)(=O)=O)ccc1OC [(-)-Sulpiride]
% conversion [6]: 32.10%

Cc1cc(C(C)(C)C)c(O)c(C)c1CC1=NCCN1 [Oxymetazoline hydrochloride]
Plate 3 (% conversion) (LOPAC compound at 20uM, plate 3, conversion of substrate peptide): 41.41%

C[C@H]1CCC/C=C/[C@@H]2C[C@H](O)C[C@H]2[C@H](O)/C=C/C(=O)O1
Plate 1 (% conversion): 38.82% | Plate 1 (% inhibition): -8.79%

O.O.O=C(Nc1ccc2c(c1)CCN(Cc1ncn[nH]1)C2)c1ccccc1-c1ccc(C(F)(F)F)cc1 [CP-346086 dihydrate]
% inhibition [5]: -27.35% | % conversion [6]: 45.80%
